Data published in article PMC9252919, “Controlled masking and targeted release of redox-cycling ortho-quinones via a C–C bond-cleaving 1,6-elimination” (Nature Chemistry, 2022).
Like-named read-outs stand apart in the source and are kept apart here.

Legend:
[1] = Penicillin-G-amidase-mediated kinetic analysis of elimination at physiological pH (HPLC); type: physicochemical; conditions: pH 7.4, 37 °C
Protocol: Stocks of 2-phenylacetyl-para-aminobenzyl ketol were made up in DMF at a concentration of 10 mM. For a reaction, 17.5 µl of ketol stock was added to 17.5 µl of a 10 mM stock of internal standard in DMF and 310 µl of PBS at pH 7.4. To initiate a reaction, 5 µl of a suspension of penicillin G amidase (PenG, Sigma-Aldrich enzyme 76427, 5–10 U mg^−1) was added. In control samples 5 µl of PBS was added in place of the enzyme. Test and control samples were then incubated at 37 °C with shaking. At the recorded time points, 20 µl aliquots of the reactions were analysed by HPLC (254 nm, ThermoFisher U3000). HPLC column: Phenomenex Kinetex C18, 5 µm, 50 × 4.6 mm, 100 Å; flow, 1 ml min^−1. Gradient and solvent system for assay with 2-phenylacetyl-PAB-PhQ 21: A = H2O, B = acetonitrile, t = 0–1 min 0% B, t = 1–10 min 0–100% B, t = 10–11 min 0% B. Gradient and solvent system for assay with 2-phenylacetyl-PAB-BL 22 and 2-phenylacetyl-PAB-DN 23: A = H2O + 0.1% formic acid, B = acetonitrile + 0.1% formic acid, t = 0–1 min 0% B, t = 1–10 min 0–40% B, t = 10–16 min 40–50% B, t = 16.1 min 100% B, t = 16.1–18 min 100% B, t = 18–20 min 0% B. Peaks were identified by LC–MS analysis and comparison with pure compounds. Values described represent peak area (mAU × min) divided by peak area of internal standard. Recorded values are averages of three independent reactions and error bars display standard errors of the mean. Fitting was performed using GraphPad Prism 8 software. Rate and half-life measurements were calculated by consumption of intermediate para-aminobenzyl ketol and formation of product quinone.

[2] = pH-rate aqueous kinetic analysis of fragmentation (HPLC); type: physicochemical; conditions: for kobs of elimination at pH 6: pH 6, 37 °C; for kobs of elimination at pH 6 / kobs of elimination at pH 3: citrate-phosphate buffer; for kobs of elimination at pH 3: pH 3, 37 °C
Protocol: pH-rate analysis was performed by adaption of the PenG assay. To obtain deprotected para-aminobenzyl ketol species, 2-phenylacetyl protected ketol was dissolved in PBS with 33% DMF to a concentration of 3.3 mM. Then 20 µl of a stock solution of PenG was added to 600 µl of this stock and incubated for 20 min at 37 °C, after which 20 µl of a 100 mM stock of internal standard in DMSO was added. Reactions were then set up immediately. For a reaction, 10 µl of the aminobenzyl ketol/standard stock was added to 190 µl of citrate–phosphate buffer at the specified pH to obtain an aqueous solution containing 1.8% DMSO. Test samples were incubated at 37 °C with shaking. At the recorded time points, 20 µl aliquots of the reactions were analysed by HPLC (254 nm, ThermoFisher U3000). HPLC conditions: column Phenomenex Kinetex C18 5 µm, 50 × 4.6 mm, 100 Å; solvent system A = H2O + 0.1% formic acid, B = acetonitrile + 0.1% formic acid; flow, 1 ml min^−1. Gradient for assay with PAB-PhQ 7: t = 0–1 min 0% B, t = 1–10 min 0–100% B, t = 10–11 min 0% B. Gradient for assay with PAB-BL 10 and PAB-DN 18: t = 0–1 min 0% B, t = 1–10 min 0–40% B, t = 10–16 min 40–50% B, t = 16.1 min 100% B, t = 16.1–18 min 100% B, t = 18–20 min 0% B. Values described represent peak area (mAU × min) divided by peak area of internal standard. Where necessary, peaks were deconvoluted using Origin fitting software. Recorded values are averages of three independent reactions and error bars display standard errors of the mean. Values were fitted using GraphPad Prism software. Rate and half-life measurements were calculated based on consumption of the para-aminobenzyl ketol species.

[3] = 1H NMR kinetic analysis of elimination of PAB-PhQ in MeOD; type: physicochemical
Protocol: Kinetics of the release of PhQ 4 from PAB-PhQ 7 were monitored by ^1H NMR at 25 °C. Analysis was performed in MeOD due to poor solubility of the compound in H2O. To form the active eliminating species, Boc-PAB-PhQ 6 was dissolved in dichloromethane/trifluoroacetic acid 4:1 at 0 °C and stirred for 30 min, upon which the reaction appeared complete by TLC. Product 7 was dried in vacuo before being dissolved in MeOD. The basicity of the solution was altered by addition of triethylamine (drops). pH was estimated using pH paper. pH values are only indicative because analysis is performed in MeOD. Elimination rates were determined from the aromatic region. Kinetics were measured by monitoring the integral of one peak, normalized to the number of protons present (that is, the integral of 1H), divided by the total integral of the aromatic region (δ = 6.2–8.6 ppm, that is, the integral of 12 H). Analysis was performed using Mestrenova v.14.2.0 processing software and rate constants were calculated using GraphPad Prism v.8.0 software.

recombinant human 5-LO = biological target: T1, recombinant human 5-LO (Homo sapiens, UniProt P09917); assay: Cell-free activity assay for recombinant human 5-LO; type: biochemical
T1 construct: made in house; host or cells: Escherichia coli BL21
T1 sequence (P09917 1-674): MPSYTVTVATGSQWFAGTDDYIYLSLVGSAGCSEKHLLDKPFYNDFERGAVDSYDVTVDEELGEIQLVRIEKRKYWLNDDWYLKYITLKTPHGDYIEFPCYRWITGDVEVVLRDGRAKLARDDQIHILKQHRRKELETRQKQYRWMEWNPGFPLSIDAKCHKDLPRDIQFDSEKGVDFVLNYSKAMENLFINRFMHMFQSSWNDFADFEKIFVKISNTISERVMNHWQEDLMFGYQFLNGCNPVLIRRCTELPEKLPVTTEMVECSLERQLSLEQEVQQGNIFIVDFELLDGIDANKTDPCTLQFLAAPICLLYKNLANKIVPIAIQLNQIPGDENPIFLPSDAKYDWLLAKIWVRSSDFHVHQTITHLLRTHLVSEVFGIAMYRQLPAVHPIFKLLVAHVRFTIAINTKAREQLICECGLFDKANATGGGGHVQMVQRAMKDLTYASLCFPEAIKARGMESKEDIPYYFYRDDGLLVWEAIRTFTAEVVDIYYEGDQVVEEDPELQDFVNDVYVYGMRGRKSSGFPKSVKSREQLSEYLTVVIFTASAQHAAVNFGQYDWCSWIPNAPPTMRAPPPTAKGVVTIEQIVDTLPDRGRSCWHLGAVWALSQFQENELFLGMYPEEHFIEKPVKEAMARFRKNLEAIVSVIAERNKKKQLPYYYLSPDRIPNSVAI
Protocol: Escherichia coli (BL21) was transformed with pT3-5-LO plasmid, and recombinant 5-LO protein was expressed at 30 °C as described. Cells were lysed in 50 mM triethanolamine/HCl pH 8.0, 5 mM EDTA, 1 mM phenylmethanesulfonyl fluoride, soybean trypsin inhibitor (60 μg ml^−1) and lysozyme (1 mg ml^−1), homogenized by sonication (3 × 15 s) and centrifuged at 40,000g for 20 min at 4 °C. The 40,000g supernatant (S40) was applied to an ATP–agarose column to partially purify 5-LO as described. Aliquots of semipurified 5-LO (0.5 μg) were diluted with 1 ml ice-cold PBS containing 1 mM EDTA. Samples were preincubated with the test compound or vehicle (0.1% DMSO) with or without 1 mM DTT, as indicated. After 10 min at 4 °C, samples were prewarmed for 30 s at 37 °C, and 2 mM CaCl2 plus 20 μM arachidonic acid was added to start the formation of 5-LO products. After 10 min, the reaction was stopped by addition of 1 volume of ice-cold methanol, and the formed 5-LO products were analysed by reverse-phase HPLC as described. 5-LO products include the all-trans isomers of LTB4 (trLTB4 isomers) and 5(S)-hydroperoxy-6-trans-8,11,14-cis-eicosatetraenoic acid and its corresponding alcohol 5(S)-hydroxy-6-trans-8,11,14-cis-eicosatetraenoic acid.

[4] = In vitro redox-cycling phenol red/horseradish peroxidase reporter assay; conditions: phenol red/HRP with DTT, up to 25 μM
Protocol: The in vitro redox-cycling capability of compounds was assessed by phenol red/horseradish peroxidase (HRP) assay by adaption of a previously described protocol. Briefly, stocks were prepared as follows: (1) DTT to a concentration of […] in PBS pH 7.4 buffer; (2) compound stocks in PBS pH 7.4 buffer to 3× the desired concentration by 1,000× dilution of DMSO stocks; (3) a stock of phenol red/HRP detection reagent containing 300 µg ml^−1 phenol red and 180 µg ml^−1 HRP enzyme in PBS pH 7.4 buffer; (4) a stock of 1 M NaOH in water; (5) a stock of 100 µM H2O2 in PBS prepared by addition of a 30% solution of H2O2 in water into 1,000 µl of PBS. Into each well of a 96-well clear flat-bottomed plate was then added 40 µl of compound stock in PBS followed by 40 µl of DTT stock, followed immediately by 40 µl of phenol red/HRP reagent. A positive control with 100 µM H2O2 added in place of compound was included. The plate was incubated in the dark at room temperature for 15 min. Following this, 20 µl of 1 M NaOH was added to each well to terminate the reaction. Absorbance was immediately measured at 610 nm (MiniMax i3x Imager, Molecular Devices). Absorbance of treated wells was normalized to control wells treated with PBS only (zero redox cycling).

ovine blood = assay: Methaemoglobin analysis in ovine blood; design: species or system sheep; conditions: in vitro ovine blood model, 1 h incubation
Protocol: Defibrinated Oxoid sheep’s blood (ThermoScientific) was diluted to a 5% v/v suspension in PBS pH 7.4. In a 96-well microtitre plate, 150 µl of blood suspension was added to 50 µl of serially diluted compound in PBS containing a 4× stock of each compound of interest. Serial dilution of compounds from DMSO stocks into PBS was performed to achieve an in-plate DMSO concentration of 0.1%. PBS buffer alone was used as a negative control. The plate was incubated for the specified time at 37 °C. The plate was then centrifuged at 3,500 r.p.m. for 5 min. The supernatant was removed and cells lysed by resuspension in 100 µl of a solution of Triton-X-100 (1%) in PBS. Following this, 80 µl of lysed cell contents were transferred to a second microtitre plate for ultraviolet measurement. Ultraviolet absorbance was measured immediately at 630 nm (MiniMax i3x Imager, Molecular Devices). Methaemoglobin increase was determined by A630−A6300/A6300×100 , where A630 is the absorbance of the test well at 630 nm, and A6300 is the absorbance of the negative control at 630 nm.

AML cell line MOLM-13 = assay: Viability assay with small-molecule prodrugs, MOLM-13; type: cell-based; conditions: 5 µM, 24 h
Protocol: For assays assessing cytotoxicity of β-lapachone versus small-molecule prodrugs, antibodies and ADCs, suspension cells were plated into 24-well plates at a density of 2.5 × 10^5 cells ml^−1 in 240 µl. Stocks of ADC or antibody in PBS were normalized to 12.5 µM. Serial dilutions of compound were made up in PBS. Then, 60 µl of each stock of either PBS or compound in PBS was added to the cells to achieve the desired final concentration. After the specified incubation time, toxicity was assessed by counting of live cells using the trypan blue exclusion method with a Countess II Automated Cell Counter (ThermoFisher Scientific) according to the manufacturer’s instructions. Cell viability was determined by dividing the average live cell number of treated wells by the average live cell number for control wells treated with PBS only. IC50 values were calculated using GraphPad Prism software. Note: for the assay performed over 96 h, 5% human serum was added to media instead of 10% fetal bovine serum, to limit non-specific antibody internalisation. This had little effect on ADC toxicity.

[5] = 25 °C, moderately acidic methanolic solution

2-phenylacetyl-PAB-PhQ [Compound 21]
kobs, formation of PhQ 4 following addition of penicillin G amidase to 21 [1]: 1.15 ± 0.66 × 10^–5 s^–1
stability without added enzyme ([1]; no penicillin G amidase): stable

Nc1ccc(CC2(O)C(=O)c3ccccc3-c3ccccc32)cc1 (stereo not drawn) [Compound 7, para-aminobenzyl phenanthrene-ketol]
kobs, elimination of 7 ([1]; 7 generated enzymatically from 21): 9.72 ± 2.88 × 10^–6 s^–1
pH at which elimination rate peaks ([2]; 37 °C): 5–6
kobs of elimination at pH 6 [2]: 1.7 ± 0.3 × 10^–5 s^–1
kobs, rate of consumption of 7 [3, 5]: 6.18 ± 0.12 × 10^–5 s^–1
kobs, rate of formation of product 4 from 7 [3, 5]: 6.55 ± 0.22 × 10^–5 s^–1
time to complete release of 4 from 7 [3, 5]: ≤ 20 h
completeness of release of 4 from 7 ([3]; basic conditions): not complete after 40 h
kobs, appearance of 4 from 7 ([3]; basic conditions, MeOD with triethylamine): 1.16 ± 0.18 × 10^–6 s^–1

CC1(C)CCC2=C(O1)c1ccccc1C(O)(Cc1ccc(N)cc1)C2=O (stereo not drawn) [Compound 10]
pH at which elimination rate peaks ([2]; 37 °C): 3
kobs of elimination at pH 3 [2]: 1.1 ± 0.1 × 10^–5 s^–1
kobs of elimination at pH 6 [2]: 2.1 ± 0.8 × 10^–7 s^–1
elimination resulting in formation of 1 ([2]; pH ≥6, within 72 h, 37 °C): Negligible

CC1OC2=C(C(=O)C(O)(Cc3ccc(N)cc3)c3ccccc32)C1(C)C (stereo not drawn) [Compound 18]
kobs of elimination at pH 3 [2]: 9.1 ± 0.2 × 10^–6 s^–1
kobs of elimination at pH 6 [2]: 7.4 ± 1.1 × 10^–7 s^–1

CC1(C)CCc2c3c(c4ccccc4c2O1)OCCO3 [Compound 25]
IC50 (recombinant human 5-LO; with DTT (1 mM), read-out: IC50, 5-LO inhibition with DTT): 11.5 ± 2.2 µM
IC50 (recombinant human 5-LO; without DTT, read-out: IC50, 5-LO inhibition without DTT): 11.3 ± 1.1 µM
in vitro redox activity [4]: no measurable redox activity
methaemoglobin formation (ovine blood): did not occur

CC(=O)Oc1c2c(c3ccccc3c1OC(C)=O)OC(C)(C)CC2 [Compound 29]
toxicity to MOLM-13 at 5 µM (AML cell line MOLM-13): complete cell death
